Measurements as given in patent US20240343699A1, “DERIVATIVES OF SUBSTITUTED MORPHOLINES AND USES THEREOF” (Supernus Pharmaceuticals, Inc., priority 2023, published 2024).

Assays:
recognition memory = experiment: Novel object recognition, scopolamine-impairment model, 3 hr retention interval
[1] = Stability in human plasma with protease inhibitor cocktail and individual amidase/esterase inhibitors; type: in vitro ADME
Experimental: Plasma Preparation. Whole blood was centrifuged at 1174×g for 30 min. Aliquots of the supernatant were then transferred to 5 mL centrifuge tubes.
Stability of COMPOUND A in Human and Rat Plasma (circulating enzymes) in the Presence of Protease Inhibitor Cocktail. COMPOUND A was added to plasma with and without protease inhibitor cocktail and incubated to study inhibition of test article (COMPOUND A) degradation. […] Plasma with and without inhibitor cocktail was aliquoted into 1.5 mL tubes to a volume of 950 μL, then preincubated for 15 min. An aliquot (50 μL) of test article stock solution was added to plasma with and without inhibitor and tubes were vortexed then incubated at 37° C. Degradation began with the addition of test article. Aliquots (50 μL) were taken at 0, 15, 30, 60, and 120 min after being vortexed and were quenched in 150 μL acetonitrile/0.1% formic acid solution and briefly vortexed then immediately frozen at −80° C. Stability was determined by measuring loss of parent compound using LC/MS/MS methods. Each exposure condition and time point were done in triplicate.
Stability of COMPOUND A in Human and Rat Plasma (circulating enzymes) in the Presence of Individual Protease Inhibitors. In addition to using a cocktail of protease inhibitors, individual inhibitors were used in plasma. […] Stability was determined by measuring loss of parent compound using LC/MS/MS methods. […]

prepulse inhibition = experiment: Prepulse inhibition (PPI) of the auditory startle response, apomorphine-impairment model
cognitive flexibility = experiment: Operant set-shifting test against PCP; type: in vivo, male Wistar rats
Experimental: This assay serves as a model of impaired executive function associated with neuropsychiatric disorders like schizophrenia. The aim of this study was to evaluate COMPOUND C to reverse deficits observed with PCP on cognitive flexibility using the operant set-shifting test in the rat.
Substances & Formulation.
Doses were prepared by separate weighing (W/V). COMPOUND C formulations were prepared fresh on each dosing day and dosing was completed within 8 hours of formulation. Phencyclidine (PCP) hydrochloride, white powder, was dissolved in physiological saline by magnetic stirring, fresh each day of dosing.
Test System. 78 male Wistar rats were supplied for this study. • 72 rats, 8-9 weeks old, weighing 218-299 g at the beginning of the visual discrimination were submitted to the entire behavioral testing and assigned to match groups based on their performance during the second visual discrimination session. • 6 spare rats were submitted to lever pressing, side bias and visual discrimination but were discarded for the testing period (set-shift and reversal)
The experimental protocol which detects effects on behavioral flexibility follows that described by Floresco et al. (Behav. Brain Res., 190, 85-96 (2008)).
Apparatus. The apparatus consists of standard Med Associates ENV-008 Skinner boxes (30×25×30 cm) fitted with a house light, two retractable levers and a food pellet dispenser. The levers are located on either side of the food receptacle connected to the pellet dispenser. A light emitting diode stimulus light is positioned centrally above each lever and served as a stimulus for visual-cue discrimination learning.
Acquisition of lever-pressing (training). The aim of this phase was to train animals to lever-press to receive a food pellet reward.
Side bias. On the last day of training, the side bias for the rat was determined. The session was similar to the lever pressing session except that both levers were inserted into the chamber together (i.e. 90 levers presentations every 20 seconds). Again, the stimulus lights above each of the levers were not illuminated during this training session. On the first levers presentation, a food pellet was delivered after responding on either lever. Upon subsequent insertion of the levers, food was delivered only if the rat responded on the lever opposite to the one chosen initially. If the rat chose the same lever to the initial choice, no food was delivered. This continued until the rat chose the lever opposite to the one chosen initially. After choosing both levers, a new trial commenced. Thus, one trial for the side bias procedure consisted of responded on both levers. The sessions terminated after 90 levers presentations or after completion of 21 trials.
Visual-cue discrimination learning. After determining the side bias, animals were submitted to visual-cue discrimination learning.
A session began with both levers retracted and the chamber in darkness (the inter-trial state). Every 20 seconds, a trial began with illumination of one of the stimulus lights above one of the levers. 3 seconds later, the house light was illuminated, and both levers were inserted into the chamber. […] After food delivery, the house light remained on for another 4 seconds, after which the chamber returned to the inter-trial state. If the rat responded on the other lever (incorrect response), both levers retracted immediately without food delivery and the chamber reverted to the inter-trial state.

in vivo = conditions: beagle, dog, plasma, po, 80 mg/kg
[2] = COMPOUND C 60 mg/kg PO + apomorphine
[3] = COMPOUND C 90 mg/kg PO + apomorphine
[4] = COMPOUND C 120 mg/kg PO + apomorphine

CCOc1ccccc1OC[C@@H]1CN(C(=O)OC(C)OC(=O)[C@@H](N)C(C)C)CCO1 (some centres unmarked) [COMPOUND A]
d2 ratios: effect on scopolamine impairment (recognition memory; COMPOUND A 90 mg/kg p.o. + scopolamine): significantly attenuated this effect of scopolamine | preference for the novel object (exploration times) (recognition memory; COMPOUND A 30, 60, and 90 mg/kg p.o. + scopolamine, 3 hr delay): significant (p<0.05) preference for the novel object | degradation accounted for by esterase and amidase enzymes ([1]; fresh human and rat plasma with amidase and esterase inhibitors): ~100% | Human proteolytic activity relative to rat proteolytic activity ([1]; plasma, 60 min incubation): about 3 fold

CCOc1ccccc1OC[C@@H]1CN(C(=O)OC(OC(=O)[C@H](N)C(C)C)C(C)C)CCO1 (some centres unmarked) [COMPOUND C]
% PPI (mean ± SEM) (prepulse inhibition; [2]): 43.6 ± 5.0% | Acoustic Startle (AU) (mean ± SEM) (prepulse inhibition; [2]): 1719.1 ± 211.2 AU | % PPI (mean ± SEM) (prepulse inhibition; [3]): 37.2 ± 5.6% | Acoustic Startle (AU) (mean ± SEM) (prepulse inhibition; [3]): 1579.9 ± 171.1 AU | % PPI (mean ± SEM) (prepulse inhibition; [4]): 43.7 ± 3.7% | Acoustic Startle (AU) (mean ± SEM) (prepulse inhibition; [4]): 1856.8 ± 245.8 AU | attenuation of the effects of apomorphine on PPI (prepulse inhibition; COMPOUND C 60, 90, 120 mg/kg PO): None of the doses of COMPOUND C were associated with a statistically significant attenuation | number of omissions, post-hoc Dunnett (cognitive flexibility; COMPOUND C 120 mg/kg p.o. + PCP, first set-shift session): significant effects at the dose of 120 mg/kg | number of perseverative errors vs PCP controls (cognitive flexibility; COMPOUND C 40, 80, 120 and 160 mg/kg p.o. + PCP): did not significantly affect | number of trials to reach the criterion vs PCP controls (cognitive flexibility; COMPOUND C 40, 80, 120 and 160 mg/kg p.o. + PCP, first set-shift and first reversal sessions): did not significantly affect the number of trials to reach the criterion | omissions vs PCP-treated rats (cognitive flexibility; COMPOUND C 40-160 mg/kg p.o. + PCP): increased omissions | AUC(0-inf) (in vivo; female): 591 ng·h/mL | AUC(0-t) (in vivo; female): 572 ng·h/mL | Cmax (in vivo; female): 308 ng/mL | MRT inf (in vivo; female): 4.78 h | MRT last (in vivo; female): 3.16 h | Tmax (in vivo; female): 0.5 h | half-life (in vivo; female): 4.73 h | AUC(0-inf) (in vivo; male): 1200 ng·h/mL | AUC(0-t) (in vivo; male): 1190 ng·h/mL | Cmax (in vivo; male): 775 ng/mL | MRT inf (in vivo; male): 2.8 h | MRT last (in vivo; male): 2.58 h | Tmax (in vivo; male): 0.5 h | half-life (in vivo; male): 2.94 h
